Results reported in patent US9056876B2, “Substituted 1H-pyrazolo[3′,4′,4,5]thieno[2,3-b]pyridin-3-amine analogs as positive allosteric modulators of the muscarinic acetylcholine receptor M4” (VANDERBILT UNIVERSITY, priority 2011, dated 2015).

Target: T1, mAChR M4 (UniProt P08173)
T1 construct: hM1 and hM4 cDNAs were purchased from Missouri S&T cDNA Resource
T1 sequence (P08173 1-479): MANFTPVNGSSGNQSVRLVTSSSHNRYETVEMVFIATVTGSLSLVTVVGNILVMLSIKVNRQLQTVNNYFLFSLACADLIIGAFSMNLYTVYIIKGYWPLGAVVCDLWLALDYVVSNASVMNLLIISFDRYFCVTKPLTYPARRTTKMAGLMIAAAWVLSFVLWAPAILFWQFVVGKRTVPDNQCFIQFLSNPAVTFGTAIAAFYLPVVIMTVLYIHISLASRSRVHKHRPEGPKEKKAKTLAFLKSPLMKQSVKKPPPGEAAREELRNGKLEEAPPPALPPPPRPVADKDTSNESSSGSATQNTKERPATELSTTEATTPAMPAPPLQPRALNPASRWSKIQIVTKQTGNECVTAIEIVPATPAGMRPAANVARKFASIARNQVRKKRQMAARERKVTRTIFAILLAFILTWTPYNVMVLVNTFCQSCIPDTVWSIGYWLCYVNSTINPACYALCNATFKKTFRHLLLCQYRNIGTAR
Assay: mAChR M4 cell-based functional assay (calcium mobilization, Fluo-4, FDSS)
Details: for Emax (%)*: % ACh maximum at 30 μM; for pEC50: positive allosteric modulator activity, EC20 acetylcholine response; for pEC50 / EC50: CHO-K1 cells; for EC50: positive allosteric modulator activity: concentration-dependent increase in the EC20 acetylcholine response, >10 μM estimated for low potency (no plateau)
Procedure, shortened: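 Compound responses (11-point, 1:3 series) were followed as calcium fluorescence ratio on FDSS in Gqi5-coupled M4 CHO-K1 cells (human or rat) loaded with Fluo-4. Acetylcholine followed at EC20 (144 s) then EC80 (230 s). EC50/Emax from four-parameter logistic fits of direct, EC20-potentiating or EC80-inhibiting effects.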

Q: For `Cc1cc(C)c2c(n1)sc1c(NCc3ccc(C#N)c(F)c3)nn(C)c12` [Compound 90, 2-fluoro-4-(((1,6,8-trimethyl-1H-pyrazolo[3′,4′:4,5]thieno[2,3-b]pyridin-3-yl)amino)methyl)benzonitrile], which “Emax (%)*” value is on record?
A: Its value is 52%.

Q: And the pEC50?
A: Its pEC50 is 6.60.

Q: What about the EC50 of the same molecule?
A: The EC50 was 250 nM.

Q: What does the source list for `Cc1cc(C)c2c(n1)sc1c(NCc3cc(C#N)ccc3F)nn(C)c12` [Compound 91, 4-fluoro-3-(((1,6,8-trimethyl-1H-pyrazolo[3′,4′:4,5]thieno[2,3-b]pyridin-3-yl)amino)methyl)benzonitrile]?
A: Emax (%)*: 57%; pEC50: 6.66; EC50: 220 nM

Q: For `Cc1cc(C)c2c(n1)sc1c(NCc3[nH]cnc3C)nn(C)c12` [Compound 92, 1,6,8-trimethyl-N-((4-methyl-1H-imidazol-5-yl)methyl)-1H-pyrazolo[3′,4′:4,5]thieno[2,3-b]pyridin-3-amine], which “Emax (%)*” value is on record?
A: Its value is 50%.

Q: What about the pEC50 of the same molecule?
A: Its pEC50 is 6.37.

Q: What about the EC50 of the same molecule?
A: Its EC50 is 430 nM.

Q: Which “Emax (%)*” value does the source give for `Cc1cc(C)c2c(n1)sc1c(NCc3scnc3C)nn(C)c12` [Compound 93, 1,6,8-trimethyl-N-((4-methylthiazol-5-yl)methyl)-1H-pyrazolo[3′,4′:4,5]thieno[2,3-b]pyridin-3-amine] here?
A: Its value is 53%.

Q: And the pEC50?
A: The pEC50 was 7.42.

Q: And the EC50?
A: The EC50 was 38 nM.

Q: Which “Emax (%)*” value does the source give for `Cc1cc(C)c2c(n1)sc1c(NCc3ccc(S(C)(=O)=O)c(F)c3)nn(C)c12` [Compound 94, N-(3-fluoro-4-(methylsulfonyl)benzyl)-1,6,8-trimethyl-1H-pyrazolo[3′,4′:4,5]thieno[2,3-b]pyridin-3-amine] here?
A: Its value is 74%.

Q: And the pEC50?
A: The pEC50 was 7.09.

Q: And the EC50?
A: The EC50 was 81 nM.

Q: `Cc1cc(C)c2c(n1)sc1c(NCc3ccco3)nn(CCO)c12` [Compound 95, 2-(3-((furan-2-ylmethyl)amino)-6,8-dimethyl-1H-pyrazolo[3′,4′:4,5]thieno[2,3-b]pyridin-1-yl)ethanol] was tested. Which “Emax (%)*” value did it give?
A: The value was 67%.

Q: What about the pEC50 of the same molecule?
A: The pEC50 was 6.92.

Q: What about the EC50 of the same molecule?
A: Its EC50 is 120 nM.

Q: Which “Emax (%)*” value does the source give for `Cc1cc(C)c2c(n1)sc1c(N)nn(CCO)c12` [Compound 96, 2-(3-amino-6,8-dimethyl-1H-pyrazolo[3′,4′:4,5]thieno[2,3-b]pyridin-1-yl)ethanol] here?
A: The value was 37%.

Q: What about the pEC50 of the same molecule?
A: The pEC50 was 5.27.

Q: And the EC50?
A: The EC50 was 5400 nM.

Q: What does the source list for `Cc1cc(C)c2c(n1)sc1c(NCc3cc(C)on3)nn(C)c12` [Compound 97, 1,6,8-trimethyl-N-((5-methylisoxazol-3-yl)methyl)-1H-pyrazolo[3′,4′:4,5]thieno[2,3-b]pyridin-3-amine]?
A: Emax (%)*: 59%; pEC50: 5.43; EC50: 3700 nM

Q: With `Cc1csc(CNc2nn(C)c3c2sc2nc(C)cc(C)c23)n1` [Compound 98, 1,6,8-trimethyl-N-((4-methylthiazol-2-yl)methyl)-1H-pyrazolo[3′,4′:4,5]thieno[2,3-b]pyridin-3-amine] as the molecule, how does the “Emax (%)*” value read?
A: The value was 53%.

Q: What about the pEC50 of the same molecule?
A: The pEC50 was 6.28.

Q: What about the EC50 of the same molecule?
A: Its EC50 is 520 nM.

Q: For `Cc1cc(C)c2c(n1)sc1c(NCc3sc(C)nc3C)nn(C)c12` [Compound 99, N-((2,4-dimethylthiazol-5-yl)methyl)-1,6,8-trimethyl-1H-pyrazolo[3′,4′:4,5]thieno[2,3-b]pyridin-3-amine], which “Emax (%)*” value is on record?
A: The value was 66%.

Q: And the pEC50?
A: Its pEC50 is 7.03.

Q: What about the EC50 of the same molecule?
A: The EC50 was 93 nM.

Q: With `Cc1cc(C)c2c(n1)sc1c(NCc3nccs3)nn(C)c12` [Compound 100, 1,6,8-trimethyl-N-(thiazol-2-ylmethyl)-1H-pyrazolo[3′,4′:4,5]thieno[2,3-b]pyridin-3-amine] as the molecule, how does the “Emax (%)*” value read?
A: Its value is 47%.

Q: What about the pEC50 of the same molecule?
A: The pEC50 was 6.37.

Q: What about the EC50 of the same molecule?
A: Its EC50 is 430 nM.

Q: Which “Emax (%)*” value does the source give for `Cc1cc(C)c2c(n1)sc1c(NCc3cccs3)nn(CCO)c12` [Compound 101, 2-(6,8-dimethyl-3-((thiophen-2-ylmethyl)amino)-1H-pyrazolo[3′,4′:4,5]thieno[2,3-b]pyridin-1-yl)ethanol] here?
A: The value was 73%.

Q: What about the pEC50 of the same molecule?
A: The pEC50 was 7.31.

Q: And the EC50?
A: The EC50 was 49 nM.

Q: What does the source list for `Cc1cc(C)c2c(n1)sc1c(NC3CNC3)nn(C)c12` [Compound 102, N-(azetidin-3-yl)-1,6,8-trimethyl-1H-pyrazolo[3′,4′:4,5]thieno[2,3-b]pyridin-3-amine]?
A: Emax (%)*: 69%; pEC50: 5.96; EC50: 1100 nM
